# According to patent US6566389B1, “Therapeutic uses of melatonin” (Neurim Pharmaceuticals (1991) Ltd., priority 1999, dated 2003):
# Marks after values point to notes of the source that are not given here.
# Tests used:
# [1] = system: pinealectomized rats treated with haloperidol; details: 4 mg, i.p., within one hour; cited from earlier work
# [2] = system: patients with tardive dyskinesia on long-term neuroleptic treatment; test: Randomized, double blind, crossover trial of melatonin on tardive dyskinesia severity, Abnormal Involuntary Movements Scale (AIMS); format: in vivo, human
# Procedure: The effect of melatonin on tardive dyskinesis was determined on a trial population of 22 patients, of whom 6 were schizoaffective and 16 were paranoid schizophrenics. All patients, who had been receiving long-term neuroleptic treatment, were diagnosed according to DSM IV. They consisted of 11 men and 11 women, age 39±15 years, age range 17-61 years, of whom 19 completed the trial and are included in the results. In a randomized, double blind, crossover manner, subjects were given daily either 2×5 mg melatonin in a controlled-release formulation (Circadin™, Neurim Pharmaceuticals, Israel), two hours before bedtime, or a placebo of identical appearance, for a period of six weeks, with a four week placebo wash-out between two treatment periods. […] During the last week of each treatment period, TD severity was assessed using the Abnormal Involuntary Movements Scale (AIMS) and comparisons were made between placebo or melatonin treatments, and baseline.
compound,measurement,setting,value
COc1ccc2[nH]cc(CCNC(C)=O)c2c1 [melatonin],severity of movements after melatonin,[1],non-significant reduction of the severity of movements
same,"T-test (t21), AIMS sub-scale 5","[2]; arms, hands, baseline/administration difference, placebo vs. melatonin",−1.78
same,"p of T-test, AIMS sub-scale 5","[2]; arms, hands, placebo vs. melatonin",0.09
same,"decrease, ie. improvement (AIMS), after administration","[2]; change from baseline after melatonin, placebo −1±1.3",−3±2.1
same,"T-test (t21), AIMS sub-scale 1","[2]; facial and oral movements, baseline/administration difference, placebo vs. melatonin",−1
same,"p of T-test, AIMS sub-scale 1","[2]; facial and oral movements, placebo vs. melatonin",0.33
same,p (MANOVA) of decrease after melatonin compared with placebo,[2]; highly significant,< 0.0001
same,"T-test (t21), AIMS sub-scale 9","[2]; implication due to abnormal movements, baseline/administration difference, placebo vs. melatonin",−1.14
same,"p of T-test, AIMS sub-scale 9","[2]; implication due to abnormal movements, placebo vs. melatonin",0.27
same,"T-test (t21), AIMS sub-scale 3","[2]; jaw, baseline/administration difference, placebo vs. melatonin",−1.14
same,"p of T-test, AIMS sub-scale 3","[2]; jaw, placebo vs. melatonin",0.27
same,"T-test (t21), AIMS sub-scale 6","[2]; legs, knees, baseline/administration difference, placebo vs. melatonin",−2.81
same,"p of T-test, AIMS sub-scale 6","[2]; legs, knees, placebo vs. melatonin, significant outcome",0.01*
same,"T-test (t21), AIMS sub-scale 2","[2]; lips and perioral area, baseline/administration difference, placebo vs. melatonin",−3.92
same,"p of T-test, AIMS sub-scale 2","[2]; lips and perioral area, placebo vs. melatonin, significant outcome",<0.001*
same,"T-test (t21), AIMS sub-scale 7","[2]; neck, shoulder, baseline/administration difference, placebo vs. melatonin",−2.49
same,"p of T-test, AIMS sub-scale 7","[2]; neck, shoulder, placebo vs. melatonin, significant outcome",0.02*
same,"T-test (t21), AIMS sub-scale 10","[2]; patient's awareness, baseline/administration difference, placebo vs. melatonin",delta = 0
same,"T-test (t21), AIMS sub-scale 11","[2]; problem with teeth, baseline/administration difference, placebo vs. melatonin",delta = 0
same,"T-test (t21), AIMS sub-scale 8","[2]; severity of abnormal movements, baseline/administration difference, placebo vs. melatonin",−1.82
same,"p of T-test, AIMS sub-scale 8","[2]; severity of abnormal movements, placebo vs. melatonin",0.08
same,"T-test (t21), AIMS sub-scale 4","[2]; tongue, baseline/administration difference, placebo vs. melatonin",−0.81
same,"p of T-test, AIMS sub-scale 4","[2]; tongue, placebo vs. melatonin",0.43
